Experimental data taken from article PMC8843100, “Development of newly synthesised quinazolinone-based CDK2 inhibitors with potent efficacy against melanoma” (Journal of Enzyme Inhibition and Medicinal Chemistry, 2022).

Tests used:
[1] = test system: DU-145; assay: NCI-60 single dose screen, sulforhodamine B; type: cell-based, human; details: Prostate cancer DU-145; single dose 10^−5 M
Description: (§1) In this research, all of the newly synthesised quinazolinones were subjected to in vitro anticancer screening by the National Cancer Institute (USA) against 60 different human cell lines including leukaemia, non-small cell lung cancer, colon cancer, CNS cancer, melanoma, ovarian cancer, renal cancer, prostate cancer, and breast cancer. The tested compounds were evaluated at a single dose (10^−5 M). […] Regarding the benzenesulfonamide counterparts, the introduction of an electron-withdrawing group on the benzenesulfonamide moiety increased the inhibitory activity on the glioblastoma cell line SNB-75 as depicted by the chloro derivative 5c (GI% = 63.09) which was higher than that of the unsubstituted derivative 5a (GI% = 40.06) and the methyl derivative 5b (GI% = 33.03).
(§2) 1. Cytotoxicity screening against a panel of 60 human tumor cell lines
(§3) All the compounds were selected for NCI-60 Human Tumor Cell Lines Screen by the Developmental Therapeutics Program (DTP) at the National Cancer Institute (NCI), Maryland, USA. The operation of this screen utilizes 60 different human tumor cell lines, representing leukemia, non-small-cell lung cancer, colon cancer, CNS cancer, melanoma, ovarian cancer, renal cancer, prostate cancer and breas t cancer.
(§4) The compounds were supplied as dry powder and a single concentration is tested in all 60 cell lines at a single dose of 10 µM solution in dimethyl sulfoxide (DMSO) using Sulforhodamine B assay. Briefly, cells are seeded in 96 well plates at an appropriate density and incubated for 1 day. After 1 day, some of the plates are processed to determine the density time zero. To the remaining plates, compounds are added at 10 µM concentration. Plates are incubated a further 2 days, then fixed and staine d with sulphorhodamine B. Growth inhibition is calculated relative to cells without drug treatment and the time zero control. The use of a time zero control allows the determination of cell kill as well as net growth inhibition. […]

[2] = test system: HS 578T; assay: NCI-60 single dose screen, sulforhodamine B; type: cell-based, human; details: Breast cancer HS 578T; single dose 10^−5 M
Description: as §1, §2, §3, §4

[3] = test system: KM12; assay: NCI-60 single dose screen, sulforhodamine B; type: cell-based, human; details: Colon cancer KM12; single dose 10^−5 M
Description: as §1, §2, §3, §4

[4] = test system: A498; assay: NCI-60 single dose screen, sulforhodamine B; type: cell-based, human; details: Renal cancer A498; single dose 10^−5 M
Description: as §1, §2, §3, §4

[5] = test system: OVCAR-5; assay: NCI-60 single dose screen, sulforhodamine B; type: cell-based, human; details: Ovarian cancer OVCAR-5; single dose 10^−5 M
Description: as §1, §2, §3, §4

[6] = test system: NCI-H522; assay: NCI-60 single dose screen, sulforhodamine B; type: cell-based, human; details: Non-small cell lung cancer NCI-H522; single dose 10^−5 M
Description: as §1, §2, §3, §4

[7] = test system: BT-549; assay: NCI-60 single dose screen, sulforhodamine B; type: cell-based, human; details: Breast cancer BT-549; single dose 10^−5 M
Description: as §1, §2, §3, §4

[8] = test system: SK-MEL-28; assay: NCI-60 single dose screen, sulforhodamine B; type: cell-based, human; details: Melanoma SK-MEL-28; single dose 10^−5 M
Description: as §1, §2, §3, §4

[9] = test system: SF-539; assay: NCI-60 single dose screen, sulforhodamine B; type: cell-based, human; details: CNS cancer SF-539; single dose 10^−5 M
Description: as §1, §2, §3, §4

[10] = test system: UO-31; assay: NCI-60 single dose screen, sulforhodamine B; type: cell-based, human; details: Renal cancer UO-31; single dose 10^−5 M
Description: as §1, §2, §3, §4

[11] = test system: MDA-MB-231/ATCC; assay: NCI-60 single dose screen, sulforhodamine B; type: cell-based, human; details: Breast cancer MDA-MB-231/ATCC; single dose 10^−5 M
Description: as §1, §2, §3, §4

[12] = test system: NCI-H226; assay: NCI-60 single dose screen, sulforhodamine B; type: cell-based, human; details: Non-small cell lung cancer NCI-H226; single dose 10^−5 M
Description: as §1, §2, §3, §4

[13] = test system: SW-620; assay: NCI-60 single dose screen, sulforhodamine B; type: cell-based, human; details: Colon cancer SW-620; single dose 10^−5 M
Description: as §1, §2, §3, §4

[14] = test system: SNB-19; assay: NCI-60 single dose screen, sulforhodamine B; type: cell-based, human; details: CNS cancer SNB-19; single dose 10^−5 M
Description: as §1, §2, §3, §4

[15] = test system: SR; assay: NCI-60 single dose screen, sulforhodamine B; type: cell-based, human; details: Leukaemia SR; single dose 10^−5 M
Description: as §1, §2, §3, §4

[16] = test system: HCT-116; assay: NCI-60 single dose screen, sulforhodamine B; type: cell-based, human; details: Colon cancer HCT-116; single dose 10^−5 M
Description: as §1, §2, §3, §4

[17] = test system: UACC-257; assay: NCI-60 single dose screen, sulforhodamine B; type: cell-based, human; details: Melanoma UACC-257; single dose 10^−5 M
Description: as §1, §2, §3, §4

[18] = test system: LOX IMVI; assay: NCI-60 single dose screen, sulforhodamine B; type: cell-based, human; details: Melanoma LOX IMVI; single dose 10^−5 M
Description: as §1, §2, §3, §4

[19] = test system: UACC-62; assay: NCI-60 single dose screen, sulforhodamine B; type: cell-based, human; details: Melanoma UACC-62; single dose 10^−5 M
Description: as §1, §2, §3, §4

[20] = test system: EKVX; assay: NCI-60 single dose screen, sulforhodamine B; type: cell-based, human; details: Non-small cell lung cancer EKVX; single dose 10^−5 M
Description: as §1, §2, §3, §4

[21] = test system: HOP-62; assay: NCI-60 single dose screen, sulforhodamine B; type: cell-based, human; details: Non-small cell lung cancer HOP-62; single dose 10^−5 M
Description: as §1, §2, §3, §4

[22] = test system: NCI-H460; assay: NCI-60 single dose screen, sulforhodamine B; type: cell-based, human; details: Non-small cell lung cancer NCI-H460; single dose 10^−5 M
Description: as §1, §2, §3, §4

[23] = test system: COLO 205; assay: NCI-60 single dose screen, sulforhodamine B; type: cell-based, human; details: Colon cancer COLO 205; single dose 10^−5 M
Description: as §1, §2, §3, §4

[24] = test system: OVCAR-3; assay: NCI-60 single dose screen, sulforhodamine B; type: cell-based, human; details: Ovarian cancer OVCAR-3; single dose 10^−5 M
Description: as §1, §2, §3, §4

[25] = test system: MOLT-4; assay: NCI-60 single dose screen, sulforhodamine B; type: cell-based, human; details: Leukaemia MOLT-4; single dose 10^−5 M
Description: as §1, §2, §3, §4

[26] = test system: SNB-75; assay: NCI-60 single dose screen, sulforhodamine B; type: cell-based, human; details: CNS cancer SNB-75; single dose 10^−5 M
Description: as §1, §2, §3, §4

[27] = test system: HT29; assay: NCI-60 single dose screen, sulforhodamine B; type: cell-based, human; details: Colon cancer HT29; single dose 10^−5 M
Description: as §1, §2, §3, §4

[28] = test system: NCI-H322M; assay: NCI-60 single dose screen, sulforhodamine B; type: cell-based, human; details: Non-small cell lung cancer NCI-H322M; single dose 10^−5 M
Description: as §1, §2, §3, §4

[29] = test system: U251; assay: NCI-60 single dose screen, sulforhodamine B; type: cell-based, human; details: CNS cancer U251; single dose 10^−5 M
Description: as §1, §2, §3, §4

[30] = test system: K-562; assay: NCI-60 single dose screen, sulforhodamine B; type: cell-based, human; details: Leukaemia K-562; single dose 10^−5 M
Description: as §1, §2, §3, §4

[31] = test system: TK-10; assay: NCI-60 single dose screen, sulforhodamine B; type: cell-based, human; details: Renal cancer TK-10; single dose 10^−5 M
Description: as §1, §2, §3, §4

SMILES	melting point [°C]	GI% at 10^−5 M [1]	GI% at 10^−5 M [2]	GI% at 10^−5 M [3]	GI% at 10^−5 M [4]	GI% at 10^−5 M [5]	GI% at 10^−5 M [6] [%]	GI% at 10^−5 M [7]	GI% at 10^−5 M [8]	GI% at 10^−5 M [9]	GI% at 10^−5 M [11]	GI% at 10^−5 M [12]	GI% at 10^−5 M [13]	GI% at 10^−5 M [14]	GI% at 10^−5 M [15]	GI% at 10^−5 M [16]	GI% at 10^−5 M [17]	GI% at 10^−5 M [18]	GI% at 10^−5 M [19]	GI% at 10^−5 M [20]	also measured
COc1cc(C=Nn2c(COc3ccccc3)nc3ccccc3c2=O)ccc1O [Compound 6a, 3-((4-hydroxy-3-methoxybenzylidene)amino)-2-(phenoxymethyl)quinazolin-4(3H)-one]	191 to 193	– (– means GI < 10%)	– (– means GI < 10%)	– (– means GI < 10%)	– (– means GI < 10%)	– (– means GI < 10%)	16.82	– (– means GI < 10%)	– (– means GI < 10%)	– (– means GI < 10%)	10.92%	– (– means GI < 10%)	– (– means GI < 10%)	– (– means GI < 10%)	– (– means GI < 10%)	– (– means GI < 10%)	– (– means GI < 10%)	– (– means GI < 10%)	– (– means GI < 10%)	– (– means GI < 10%)	GI% at 10^−5 M [10]: 15.75%; GI% at 10^−5 M [21]: – (– means GI < 10%); GI% at 10^−5 M [22]: – (– means GI < 10%); GI% at 10^−5 M [23]: – (– means GI < 10%); GI% at 10^−5 M [24]: – (– means GI < 10%); GI% at 10^−5 M [25]: – (– means GI < 10%); GI% at 10^−5 M [26]: 13.12%; GI% at 10^−5 M [27]: – (– means GI < 10%); GI% at 10^−5 M [28]: – (– means GI < 10%); GI% at 10^−5 M [29]: – (– means GI < 10%); GI% at 10^−5 M [30]: – (– means GI < 10%); GI% at 10^−5 M [31]: – (– means GI < 10%)
O=C(CNn1c(COc2ccccc2)nc2ccccc2c1=O)Nc1ccc(Cl)cc1 [Compound 4c, N-(4-chlorophenyl)-2-((4-oxo-2-(phenoxymethyl)quinazolin-3(4H)-yl)amino)acetamide]	165 to 167	– (– means GI < 10%)	19.01%	– (– means GI < 10%)	16.35%	– (– means GI < 10%)	24.21	12.12%	– (– means GI < 10%)	– (– means GI < 10%)	– (– means GI < 10%)	11.13%	– (– means GI < 10%)	– (– means GI < 10%)	10.05%	– (– means GI < 10%)	– (– means GI < 10%)	– (– means GI < 10%)	14.58%	19.01%	GI% at 10^−5 M [21]: 12.12%; GI% at 10^−5 M [22]: – (– means GI < 10%); GI% at 10^−5 M [23]: – (– means GI < 10%); GI% at 10^−5 M [24]: – (– means GI < 10%); GI% at 10^−5 M [25]: 15.9%; GI% at 10^−5 M [26]: – (– means GI < 10%); GI% at 10^−5 M [27]: – (– means GI < 10%); GI% at 10^−5 M [28]: – (– means GI < 10%); GI% at 10^−5 M [29]: – (– means GI < 10%); GI% at 10^−5 M [30]: 10.43%; GI% at 10^−5 M [31]: – (– means GI < 10%)
